According to patent publication US20210332139A1, “MODULATION OF LEUKOCYTE ACTIVITY IN TREATMENT OF NEUROINFLAMMATORY DEGENERATIVE DISEASE” (Leuvas Therapeutics, priority 2013, published 2021):

System: Bend.3 endothelial cell line
Test: Adhesion molecule expression on Bend.3 endothelial cells (immunofluorescence)
Assay type: cell-based, mouse
Design: key: −: VCAM-1 and selectins were not expressed (indicated by -, Table 2); constitutively expressed at low levels on endothelial cells (indicated by +/−, some vessels were positive for ICAM-1, Table 2); an increase of ICAM-1 expression (indicated by +, Table 2)
Settings: Bend.3 cells, 10 μM Aβ1-42 oligomers, 18 h
Procedure: We performed in vitro experiments to study the effect of soluble Aβ1-42 oligomers on the endothelial cell line Bend.3, derived from mouse cerebral cortex purchased by ATCC& Cell Biology Collection (CRL-2299TM).
Briefly, Bend.3 were cultured at a concentration of 20×10^3/ml on a glass coverslip in 24-well plates containing DMEM supplemented with 10% Fetal Calf Serum (FCS). Cells were stimulated with 10 μM Aβ 1-42, for 18 h in DMEM with 1% FCS. […] positive control, cells were treated with 25 U/ml of TNFα for 18 h in DMEM with 1% FCS. Bend.3 were rinsed with PBS and fixed with 4% PFA for 10 minutes. Cells were washed with PBS incubated with blocking buffer for 1 h at RT° C. Primary antibodies were diluted in 1% Bovine Serum Albumin (BSA) PBS. Cells were incubated overnight at 4° C. with 50 μg/ml anti-VCAM (hybridoma MK2.7), 10 μg/ml anti-ICAM (hybridoma YN1.7), 0.5 μg/ml anti-CD31 (370700, Invitrogen), 5 μg/ml anti-E-selectin (hybridoma RME-1) and 1.5 μg/ml anti-P-selectin (CD62P, BD Pharmigen). The day after, cells were rinsed 2 times with PBS and then incubated with 7.5 μg/ml biotinylated secondary antibody (rabbit anti-rat, T0226, VectorLab) for 1 h at RT° C. Cells were rinsed 2 times with PBS and incubated with 25 μg/ml Avidin-TexasRed (A2006, Vector Lab) for 1 h at RT° C. in the dark. After rinsing in PBS, cells were incubated with 1 μg/ml Dapi (D9542, Sigma-Aldrich, St. Louis, Mo.), for 5 minutes in the dark. Finally, glass coverslip was transferred on glass slides and mounted with Dako medium (S3023, DAKO NORTH AMERICA, Carpinteria, Calif.). Glass slides were kept at 4° C. in the dark and acquired by LEICA fluorescence microscopy (DM6000B, LEICA, Germany).
We analyzed the expression of VCAM-1, ICAM-1, E- and P-selectin on Bend.3 after Aβ1-42 oligomers stimulation. TNF-α stimulation, which is well known to up-regulate the adhesion molecules expression, was used as positive control. We evaluated a dose-response effect of Aβ1-42 soluble oligomers on Bend.3 cells, ranging from 1 to 10 μM after 6 or 18 hours of treatment. After 18 h of treatment with 10 μM Aβ we observed a significant up-regulation of […] compared to non-stimulated control cells (CTRL) (Table 2). […] ICAM-1 was constitutively expressed at low levels on endothelial cells (indicated by +/−, some vessels were positive for ICAM-1, Table 2), but 18 h treatment with Aβ1-42 led to an increase of ICAM-1 expression (indicated by +, Table 2).

Abeta 1-42: soluble oligomeric amyloid-beta 1-42 peptide used as stimulus
+: CD31 expression (endothelial cell marker) | E-sel expression | ICAM-1 expression | P-sel expression | VCAM-1 expression
